Tests used:
[1] = Net peptide charge and isoelectric point; format: physicochemical; conditions: pH 7
From the text: The peptide may be purified. For example, the peptide may be lyophilized. […] Other peptides are within the scope of the disclosure.
Exemplary peptides having a charge of +5 to +9 include […](d)[…], […](d)[…], and […](d)[…]. In other embodiments, the purified peptide may be substantially neutral. […] Net charge may be selected by peptide design. Design of electrostatic charge in the peptide hydrogel may allow control of charge interaction with cell membrane and proteins.

[2] = tested on: E. coli; test: Antibacterial assay of PEPXR hydrogels; format: cell-based
From the text: (§1) Thus, the peptide hydrogels described herein may generally comprise a high content of positively charged arginine (R) amino acids.

[3] = tested on: S. aureus; test: Antibacterial assay of PEPXR hydrogels; format: cell-based
From the text: as §1

[4] = tested on: P. aeruginosa; test: Antibacterial assay of PEPXR hydrogels; format: cell-based
From the text: as §1
The peptide hydrogel is believed to directly lyse bacterial membranes indiscriminately. […] The mechanism additionally makes it more difficult for the treated microorganisms to gain antibiotic resistance.

Substance	net charge [1]	antimicrobial activity (in words) [2]	antimicrobial activity (in words) [3]	antimicrobial activity (in words) [4]
VEVSVSVEV(d)PPTEVSVEVEV	net negative charge	–	–	–
VKVRVRVRVPPTRVRVRVKV [PEP6R]	–	potent antimicrobial activity	potent antimicrobial activity	potent antimicrobial activity

Source: US20240350579A1 (priority 2020, published 2024)
